From patent publication US7998954B2, “Pyrimidodiazepinone derivative” (Kyowa Hakko Kirin Co., Ltd., priority 2007, dated 2011)

How the values were obtained:
[1] = system: chronic dermatitis model with repeated hapten applications; assay: Effects on pruritus in chronic dermatitis model with repeated hapten (oxazolone) applications; assay type: in vivo; settings: 100 mg/kg oral, 1 hour before antigen application on day 16; BALB/c mice; ***P < 0.001, t-test vs control group
Source text: Effects on Pruritus in Chronic Dermatitis Model with Repeated Hapten Applications
A chronic dermatitis model with repeated hapten applications was produced by partially modifying the method of Kitagaki et al. [Journal of Investigative Dermatology, 1995, Vol. 105, p. 749-755].
Oxazolone (Sigma-Aldrich) was used as hapten, and dissolved in acetone (Kanto Kagaku) to prepare a 0.5 w/v % oxazolone-acetone solution (antigen solution). BALB/c mice (6 weeks of age) were sensitized by a single application of the antigen solution (10 μL) to the shaved rostral back. […]
Itch response of the mice on day 16 was analyzed by partially modifying the method of Kuraishi et al. [European journal of phamacology, 1995, Vol. 275, p. […]
To allow the mice to acclimate to new environment, the mice were left in an acrylic observation cage (7.5×8×15 cm) for 1 hour. The mice were put back into the cage immediately after the application of the antigen solution to the rostral back, and the behavior of the mice was monitored unattended with an 8 mm video camera recorder. […] During the observation, scratching movements with the hind paws around the site of antigen solution application was counted. […] A series of these movements was counted as a single scratching movement.

[2] = system: Rats with chronic constriction nerve injury; assay: Analgesic effect in rats with chronic constriction nerve injury (von Frey filaments, 50% pain threshold); assay type: in vivo, rat; settings: oral, dose of 30 mg/kg or less, measured after 3 hours
Source text: Analgesic Effect of Compounds in Rats with Chronic Constriction Nerve Injury
Rats with chronic constriction nerve injury were produced by partially modifying the method of Mosconi and Kruger et al. [Pain, 1996, Vol. 64, p. 37-57] with slight modification.
The sciatic nerve in the left posterior leg of male Crl:CD (SD) rats was exfoliated under pentobarbital anesthesia, and a polyethylene tube (trade name: Intramedic; size: PE-60; Becton Dickinson) having a length of 2 mm was wrapped over the site of exfoliation. On days 14 to 21 after the surgery, the rats were placed in an acrylic quadruple cage (width 900 mm×depth 210 mm×height 140 mm) with a wire mesh floor consisting 4 cages connected in a row. Pain evaluation was performed after at least 20 minutes to allow the rats to acclimate to the new environment.
In pain evaluation, von Frey filaments (trade name: Touch Test Sensory Evaluator; Model: 58011; Muromachi Kikai Co., Ltd.) were used. The results were calculated as a pain thresholds. That is, by using a von Frey filament of different stimulus intensity, stimulation was given to the plantar surface of the injured side of rats with chronic constriction nerve injury, and the stimulus intensity to cause paw withdrawal response was obtained. […] 441-462]. The 50% pain thresholds of normal rats were 10 to 12 g on average.
For the evaluation of test compounds, rats with 50% pain thresholds of less than 4 g were used. The test compounds were suspended in a 0.5% aqueous methyl cellulose solution, and orally administered at a volume of 5 mL/kg. After 3 hours, pain thresholds were measured using von Frey filaments.

Compound | The number of scratching movements during 1 hr after the hapten applications [1] [counts] | pain thresholds (50% paw withdrawal thresholds) [2]
CCNc1ncc2c(n1)N1CCC[C@H]1CN(Cc1ccc(F)cc1F)C2=O [Compound 3, (S)-5-(2,4-Difluorobenzyl)-9-ethylamino-1,2,3,3a,4,5-hexahydro-5,8,10,10b-tetraazabenzo[e]azulen-6-one] | 225±37 | –
CCNc1ncc2c(n1)N1CCCC1CN(c1cccc(-c3ccnc(Cl)c3)c1)C2=O (stereo not shown) [Compound 16, 5-[3-(2-Chloropyridin-4-yl)phenyl]-9-ethylamino-1,2,3,3a,4,5-hexahydro-5,8,10,10b-tetraazabenzo[e]azulen-6-one] | – | significantly increased pain thresholds
CCNc1ncc2c(n1)N1CCCC1CN(c1cccc(-c3nnc(C)o3)c1)C2=O (stereo not shown) [Compound 20, 9-Ethylamino-5-[3-(5-methyl-[1,3,4]oxadiazol-2-yl)phenyl]-1,2,3,3a,4,5-hexahydro-5,8,10,10b-tetraazabenzo[e]azulen-6-one] | – | significantly increased pain thresholds
CCNc1ncc2c(n1)N1CCC[C@H]1CN(CC1CCN(C(=O)c3ccco3)CC1)C2=O [Compound 35, (S)-9-Ethylamino-5-[1-(furan-2-carbonyl)piperidin-4-yl]methyl-1,2,3,3a,4,5-hexahydro-5,8,10,10b-tetraazabenzo[e]azulen-6-one] | 84±33 | –
CCNc1ncc2c(n1)N1CCC[C@H]1CN(c1cncc(-c3nnc(C)o3)c1)C2=O [Compound 43, (S)-9-Ethylamino-5-[5-(5-methyl-1,3,4-oxadiazol-2-yl)pyridin-3-yl]-1,2,3,3a,4,5-hexahydro-5,8,10,10b-tetraazabenzo[e]azulen-6-one] | – | significantly increased pain thresholds
CCNc1ncc2c(n1)N1CCC[C@H]1CN(c1cccc(-c3noc(C)n3)c1)C2=O [Compound 72, (S)-9-Ethylamino-5-[3-(5-methyl-1,2,4-oxadiazol-3-yl)phenyl]-1,2,3,3a,4,5-hexahydro-5,8,10,10b-tetraazabenzo[e]azulen-6-one] | – | significantly increased pain thresholds
CNc1ncc2c(n1)N1CCC[C@H]1CN(c1cccc(-c3noc(C)n3)c1)C2=O [Compound 74, (S)-5-[3-(5-Methyl-1,2,4-oxadiazol-3-yl)phenyl]-9-methylamino-1,2,3,3a,4,5-hexahydro-5,8,10,10b-tetraazabenzo[e]azulen-6-one] | – | significantly increased pain thresholds
CNc1ncc2c(n1)N1CCC[C@H]1CN(c1cccc(-c3nn(C)c(=O)o3)c1)C2=O [Compound 89, (S)-3-Methyl-5-[3-(9-methylamino-6-oxo-2,3,3a,4-tetrahydro-1H,6H-5,8,10,10b-tetraazabenzo[e]azulen-5-yl)phenyl]-1,3,4-oxadiazol-2(3H)-one] | – | significantly increased pain thresholds
CCNc1ncc2c(n1)N1CCC[C@H]1CN(c1cccc(-c3nn(C)c(=O)o3)c1)C2=O [Compound 90, (S)-5-[3-(9-Ethylamino-6-oxo-2,3,3a,4-tetrahydro-1H,6H-5,8,10,10b-tetraazabenzo[e]azulen-5-yl)phenyl]-3-methyl-1,3,4-oxadiazol-2(3H)-one] | – | significantly increased pain thresholds
CNc1ncc2c(n1)N1CCC[C@H]1CN(c1cccc(-c3nnn(C)n3)c1)C2=O [Compound 137, (S)-5-[3-(2-Methyl-2H-tetrazol-5-yl)phenyl]-9-methylamino-1,2,3,3a,4,5-hexahydro-5,8,10,10b-tetraazabenzo[e]azulen-6-one] | – | significantly increased pain thresholds
